Tests used:
Assay in all cases: isopeptidase assay, p-nitroaniline release, A405
Assay type in all cases: biochemical, Hirudo medicinalis
Details in all cases: pH 5.5, no NaCl (stated for activity), 37 °C
mlDL-Ds1 = tested on: T1, mlDL-Ds1
T1 construct: gene Ds-1; ~16 kDa band printed for Ds3; monomer by gel filtration; synthetic codon-optimised gene
Text: isopeptidase assay, p-nitroaniline release, A405 on mlDL-Ds1

mlDL-Ds3 = tested on: T2, mlDL-Ds3
T2 construct: gene Ds-3; ~16 kDa; monomer by gel filtration; synthetic codon-optimised gene
Text: isopeptidase assay, p-nitroaniline release, A405 on mlDL-Ds3

[1] = substrate: N[C@@H](CCC(=O)Nc1ccc([N+](=O)[O-])cc1)C(=O)O
Text: isopeptidase assay, p-nitroaniline release, A405 on mlDL-Ds2

Row | Km (mlDL-Ds1) [µM] | Km (mlDL-Ds3) [µM] | Molecule | Km [1] [µM] | kcat [1] [s⁻¹]
1 | 40 | 20 | N[C@@H](CCC(=O)Nc1ccc([N+](=O)[O-])cc1)C(=O)O [L-γ-Glu-pNA] |  | 
2 |  |  | mlDL-Ds2 (Hirudo medicinalis) (protein, monomer by gel filtration; synthetic codon-optimised gene) QFTDSCLRCICKVEGCDSQIGKCGMDVGSLSCGPYQIKKPYWIDCGKPGGGYESCTKNKACSETCVRAYMKRYGTFCTGGRTPTCQDYARIHNGGPRGCKSSATVGYWNKVQKCLR | 50 | 0.08

Source: publication PMC4654880, “A comparison of the enzymatic properties of three recombinant isoforms of thrombolytic and antibacterial protein—Destabilase-Lysozyme from medicinal leech” (BMC Biochemistry, 2015)
